Literature values as cited in patent publication US7858379B2, “Apparatus and method for determining the concentration of iodine-containing organic compounds in an aqueous solution” (Lynntech, Inc., priority 2007, dated 2010).

Tests used:
[1] = through the process of glomerular filtration

CNC(=O)c1c(I)c(NC(C)=O)c(I)c(C(=O)O)c1I [Iothalamate]
protein binding: do not bind to protein
excretion [1]: totally excreted by the kidney

CC(=O)N(CC(O)CO)c1c(I)c(C(=O)NCC(O)CO)c(I)c(C(=O)NCC(O)CO)c1I (stereo not shown) [Iohexol]
protein binding: do not bind to protein
excretion [1]: totally excreted by the kidney
